The structures appear in SMILES notation. Bridge positions count the residues as written; N and C are the ends. Square brackets hold non-standard residues; d marks the D form. Peptide text beside a SMILES is read from it. Hyp = O=C(O)[C@@H]1C[C@@H](O)CN1

The target of the test is calcium channels in N1E115 mouse neuroblastoma cells (Mus musculus, UniProt O55017). The class given is cell-based.
Chain of calcium channels in N1E115 mouse neuroblastoma cells (O55017 whole entry): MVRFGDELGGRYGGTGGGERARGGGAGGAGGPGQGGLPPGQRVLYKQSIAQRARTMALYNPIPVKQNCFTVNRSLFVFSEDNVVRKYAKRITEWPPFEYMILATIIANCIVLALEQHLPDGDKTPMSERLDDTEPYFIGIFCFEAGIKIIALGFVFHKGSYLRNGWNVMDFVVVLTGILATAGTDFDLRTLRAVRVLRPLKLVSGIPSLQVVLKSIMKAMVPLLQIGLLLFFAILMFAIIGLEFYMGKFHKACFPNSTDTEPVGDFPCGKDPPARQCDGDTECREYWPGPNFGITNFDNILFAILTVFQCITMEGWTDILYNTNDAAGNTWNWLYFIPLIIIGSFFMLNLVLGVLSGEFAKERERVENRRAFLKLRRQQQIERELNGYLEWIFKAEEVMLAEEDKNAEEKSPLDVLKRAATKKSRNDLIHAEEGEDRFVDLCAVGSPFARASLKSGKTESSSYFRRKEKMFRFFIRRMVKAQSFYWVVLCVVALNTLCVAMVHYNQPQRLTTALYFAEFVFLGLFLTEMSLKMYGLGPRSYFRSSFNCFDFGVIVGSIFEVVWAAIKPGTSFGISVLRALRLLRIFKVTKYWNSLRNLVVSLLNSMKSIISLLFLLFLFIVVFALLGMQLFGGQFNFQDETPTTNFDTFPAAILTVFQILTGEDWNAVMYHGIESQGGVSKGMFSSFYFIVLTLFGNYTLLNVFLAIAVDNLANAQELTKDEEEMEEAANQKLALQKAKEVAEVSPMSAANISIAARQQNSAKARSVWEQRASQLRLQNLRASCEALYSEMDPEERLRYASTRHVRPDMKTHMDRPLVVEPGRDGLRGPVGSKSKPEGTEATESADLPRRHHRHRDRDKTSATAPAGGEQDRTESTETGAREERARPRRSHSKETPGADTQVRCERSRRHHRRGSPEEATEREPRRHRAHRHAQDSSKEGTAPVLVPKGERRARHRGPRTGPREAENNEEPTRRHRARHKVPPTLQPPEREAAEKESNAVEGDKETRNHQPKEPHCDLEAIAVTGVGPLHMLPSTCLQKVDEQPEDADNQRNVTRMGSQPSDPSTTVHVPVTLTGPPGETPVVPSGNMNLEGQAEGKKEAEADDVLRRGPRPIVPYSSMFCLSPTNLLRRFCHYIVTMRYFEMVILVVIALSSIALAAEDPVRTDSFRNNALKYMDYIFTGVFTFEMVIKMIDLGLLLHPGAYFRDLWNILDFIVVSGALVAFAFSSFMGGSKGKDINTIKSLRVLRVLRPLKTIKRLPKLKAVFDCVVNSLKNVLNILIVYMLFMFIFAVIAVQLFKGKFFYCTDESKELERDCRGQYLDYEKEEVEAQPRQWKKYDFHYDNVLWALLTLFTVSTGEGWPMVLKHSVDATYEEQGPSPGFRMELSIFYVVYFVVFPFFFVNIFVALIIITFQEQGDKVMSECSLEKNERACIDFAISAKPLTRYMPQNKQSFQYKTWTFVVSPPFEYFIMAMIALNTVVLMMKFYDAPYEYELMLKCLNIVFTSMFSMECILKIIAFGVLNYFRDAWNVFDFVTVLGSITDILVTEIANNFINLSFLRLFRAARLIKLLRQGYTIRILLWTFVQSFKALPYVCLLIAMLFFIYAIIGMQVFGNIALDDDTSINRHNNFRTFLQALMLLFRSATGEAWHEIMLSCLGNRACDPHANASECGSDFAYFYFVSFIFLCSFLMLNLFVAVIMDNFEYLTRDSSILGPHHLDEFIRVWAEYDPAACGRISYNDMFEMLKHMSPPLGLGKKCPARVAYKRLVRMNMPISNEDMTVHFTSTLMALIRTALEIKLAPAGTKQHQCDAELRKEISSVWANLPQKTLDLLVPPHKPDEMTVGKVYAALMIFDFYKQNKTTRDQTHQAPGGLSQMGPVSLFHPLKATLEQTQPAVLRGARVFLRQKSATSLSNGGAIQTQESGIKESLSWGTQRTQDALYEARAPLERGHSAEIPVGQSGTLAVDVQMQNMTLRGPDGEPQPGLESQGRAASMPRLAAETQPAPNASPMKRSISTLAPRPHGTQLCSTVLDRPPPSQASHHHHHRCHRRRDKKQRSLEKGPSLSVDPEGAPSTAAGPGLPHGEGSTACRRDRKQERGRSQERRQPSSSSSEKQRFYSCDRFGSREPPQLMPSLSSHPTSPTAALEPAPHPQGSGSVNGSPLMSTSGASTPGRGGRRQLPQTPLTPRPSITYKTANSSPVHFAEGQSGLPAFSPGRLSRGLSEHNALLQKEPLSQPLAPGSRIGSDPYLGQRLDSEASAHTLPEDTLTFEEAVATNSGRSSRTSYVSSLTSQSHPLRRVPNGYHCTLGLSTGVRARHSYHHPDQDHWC
Chain of calcium channels in N1E115 mouse neuroblastoma cells (P54285 whole entry partner): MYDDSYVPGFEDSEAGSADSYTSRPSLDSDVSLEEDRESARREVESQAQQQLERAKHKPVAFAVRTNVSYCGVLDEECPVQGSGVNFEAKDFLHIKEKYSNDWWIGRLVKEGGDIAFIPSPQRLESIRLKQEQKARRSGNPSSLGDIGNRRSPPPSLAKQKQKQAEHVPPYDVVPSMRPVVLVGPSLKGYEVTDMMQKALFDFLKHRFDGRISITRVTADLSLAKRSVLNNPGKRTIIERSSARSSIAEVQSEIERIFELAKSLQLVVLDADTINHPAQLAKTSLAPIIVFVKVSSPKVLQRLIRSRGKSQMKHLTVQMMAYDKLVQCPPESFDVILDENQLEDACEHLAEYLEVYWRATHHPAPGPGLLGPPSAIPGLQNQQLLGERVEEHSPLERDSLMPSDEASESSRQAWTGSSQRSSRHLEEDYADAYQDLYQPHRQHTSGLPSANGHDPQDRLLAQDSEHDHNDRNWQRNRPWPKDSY
Chain of calcium channels in N1E115 mouse neuroblastoma cells (O08532 25-956 partner limits assumed): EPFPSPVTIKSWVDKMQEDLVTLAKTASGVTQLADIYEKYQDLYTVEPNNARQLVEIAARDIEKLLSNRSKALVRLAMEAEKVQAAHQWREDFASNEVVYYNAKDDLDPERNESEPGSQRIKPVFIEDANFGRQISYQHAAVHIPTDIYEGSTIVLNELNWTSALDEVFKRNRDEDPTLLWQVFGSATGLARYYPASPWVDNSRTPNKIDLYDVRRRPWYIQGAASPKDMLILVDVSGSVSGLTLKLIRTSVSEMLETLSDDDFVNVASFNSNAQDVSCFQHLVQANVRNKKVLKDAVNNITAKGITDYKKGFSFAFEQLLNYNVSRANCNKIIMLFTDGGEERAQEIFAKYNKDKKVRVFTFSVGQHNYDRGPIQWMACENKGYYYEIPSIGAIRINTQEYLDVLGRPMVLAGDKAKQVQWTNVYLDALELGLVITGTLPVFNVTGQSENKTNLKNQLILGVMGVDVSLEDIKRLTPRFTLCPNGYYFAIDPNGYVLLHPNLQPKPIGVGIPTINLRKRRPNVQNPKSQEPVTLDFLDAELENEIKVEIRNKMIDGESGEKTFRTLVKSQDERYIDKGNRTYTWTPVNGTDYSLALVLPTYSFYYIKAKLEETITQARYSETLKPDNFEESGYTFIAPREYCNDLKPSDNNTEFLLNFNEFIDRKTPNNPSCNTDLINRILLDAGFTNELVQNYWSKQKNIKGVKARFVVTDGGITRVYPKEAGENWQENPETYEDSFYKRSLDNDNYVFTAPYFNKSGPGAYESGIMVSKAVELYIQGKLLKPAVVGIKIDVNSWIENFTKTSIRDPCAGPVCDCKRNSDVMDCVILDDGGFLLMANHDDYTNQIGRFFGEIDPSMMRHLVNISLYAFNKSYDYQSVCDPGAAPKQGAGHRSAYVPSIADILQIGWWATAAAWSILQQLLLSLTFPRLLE
Chain of calcium channels in N1E115 mouse neuroblastoma cells (O08532 957-1103 partner limits assumed): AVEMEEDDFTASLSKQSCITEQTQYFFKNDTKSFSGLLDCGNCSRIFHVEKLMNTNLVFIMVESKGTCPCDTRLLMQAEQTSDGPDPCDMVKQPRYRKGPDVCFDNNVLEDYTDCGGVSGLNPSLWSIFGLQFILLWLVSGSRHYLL

For `CC[C@H](C)[C@@H]1NC(=O)[C@H](CO)NC(=O)[C@H]([C@@H](C)O)NC(=O)[C@H](C(C)C)NC(=O)CNC(=O)[C@@H]2CSSC[C@@H]3NC(=O)[C@H](CCCNC(=N)N)NC(=O)CNC(=O)[C@H](CSSC[C@H](N)C(=O)N[C@@H](CCCNC(=N)N)C(=O)N[C@@H](CO)C(=O)N[C@@H](CO)C(=O)NCC(=O)N[C@@H](CO)C(=O)N4C[C@H](O)C[C@H]4C(=O)N2)NC(=O)[C@H](CSSC[C@@H](C(=O)N[C@H](C(N)=O)[C@@H](C)O)NC(=O)[C@H](CCCCN)NC(=O)CNC(=O)[C@H](CCCNC(=N)N)NC(=O)[C@H](Cc2ccc(O)cc2)NC3=O)NC1=O` [SNX-157] (H-CRSSGS[Hyp]CGVTSICCGRCYRGKCT-NH2; disulfide 1-15, 8-18, 14-23), the “IC50 for calcium current (in words)” value was “not measurable within the range of concentrations tested”.
